The values that follow come from EP4488279A1, “SUBSTITUTED HEXAHYDRO-2H-PYRAZINO[1,2-A]PYRAZIN-1(6H)-ONE DERIVATIVES AS ACTIVATORS OF HUMAN CASEINOLYTIC PROTEASE P (HSCLPP)” (Centro Atlantico del Medicamento S.A (Ceamed, S.A), priority 2023, dated 2025).

The test system of one data set is 4T1 tumours. The data set is described as follows: 4T1 syngeneic tumour model in immunocompetent mice. Conditions: 25 mg/kg PO three times per week. The data set is classed as in vivo, Balb/c mice. As to the method: 4T1 syngeneic tumours were induced in female immunocompetent Balb/c mice by inject 12500 4T1 cells (passage# <7, in PBS, 100 µL) into their left inguinal mammary fat pad. Once tumour volumes [measure using the formula V = 0.5(length x width^2)] reached […], treatment with either vehicle, or compound in vehicle, was began. Compounds were administered orally (PO) at a constant dose (typically 25 mg/kg) three times per week (Monday, Wednesday and Friday). Compounds (as ether their free base or salt) were formulated as either solutions or homogenous suspensions in a vehicle of 10% Cremaphor RH40 + 90% saline for injection. Formulations were prepared at concentrations (mg/mL) = Dose/5 (e.g. a dose of 25 mg/Kg used a formulation of 5 mg/ml). Once treatments began, tumour volumes and body weights were recorded on each treatment day. Treatments were continued until 25-28 days after first treatment day, after which the mice were sacrificed. Animals whose tumour reached […] during the experiment were also sacrificed.

A further data set has as its system Yeast + HsCIpP. The data set is described as follows: Yeast growth inhibition screen, yeast expressing human ClpP. The class given is cell-based. Conditions: Saccharomyces cerevisiae, 24 h, read-out: Yeast + HsCIpP GI50. The text has this:
This technique allows to directionally assemble several DNA fragments into one single DNA piece. It is based on plasmid libraries that share the same DNA backbone but differ in the type of the insert. The assembly of the final cassette is based on the "Golden Gate Cloning" method. Human CLPP gene sequence (codon-optimized for yeast translation) was amplified with well-designed primers from a plasmid kindly provided by Dr. Michael David Tyers (University of Montreal). Once amplified, a MoClo reaction was performed to obtain the final integrative cassette. This cassette was composed as follows: • Type 1: ConLS 3' connector. • Type 2: TDH3 gene promoter (strong and constitutive expression). • Type 3: Amplified human CLPP gene. • Type 4: ADH1 gene terminator. • Type 5: ConR1 5' connector. • Type 6: LEU2 gene as selectable marker for yeast. • Type 7: 3' HO gene homology sequence for yeast integration. • Type 8a: KanR-ColE1 sequence for bacterial amplification and antibiotic resistance. • Type 8b: 5' HO gene homology sequence for yeast integration.
Digestion patterns with several restriction enzymes were carried out to confirm the success of the MoClo system. An extra restriction enzyme reaction (Notl) was performed to linearize the DNA fragment and deplete the bacterial part.
(§1) These cells contain mutants in YRS1, YRR1, PDR1 and PDR3 genes, which are involved in polydrug and pleiotropic resistance networks.
Yeast cells were transformed with the linearized cassette and transformant colonies were selected on minimum media without leucine. Independent clones were checked by PCR and positive ones were stored at -80 °C until use.
(§2) The yeast (both HsCpIP+ and HsCIpP-) are incubated in petri dishes with YPD (Yeast extract peptone dextrose) at 25 °C overnight, after which a colony is isolated, suspended in a flask with fresh YPD and incubating again under the same conditions but with agitation. […] 100 µl of this solution was then placed into the appropriated wells of a standard 96-well plate. Stock solutions (DMSO, 10 mM) of the compounds to be tested are diluted in YPD to 2X of their final concentrations to be tested, and 100 µl added to the appropriate wells. 100 µl of YPD was added to wells designated as the negative control wells, while ONC206 (0.5 µM) was used as the positive control. Once all compounds were added to the plate, an initial T = 0 absorbance value was recorded at 600 Nm. The plate was then incubated at 25 °C with gentle shaking for 24 h. The plates can either be read at multiple time points using a TECAN Spark® Multimode Microplate Reader, or at the end of the experiment using a standard spectrophotometer.
(§3) Table 2: Growth inhibition (GI50) values for compounds of the present invention in yeast containing HsCIpP, and yeast without HsCIpP.

For a further data set, the system named is PANC1. In words: MTT cell viability assay, PANC1. The data set is classed as cell-based. The following applies: Homo sapiens, PANC-1, PANC1 cells, 72 H, average of at least two independent experiments. As to the method: This a human cancer cell line derived from the pancreas of a person.
(§4) Cell viability was assayed by measuring the mitochondrial reduction of the tetrazolium salt 3-(4,5-methyltiazol-2yl)-2,5diphenyl-tetrazolium bromide] (MTT) (Applichen; A2231,0010) [Mosmann T. J Immunol Methods. […] Oncogene. […] Cells were seeded at a density according to their exponential growth phase (normally 1000 to 5000/well). The cells were cultured at 37 °C in the dark in air containing 5% CO2. After 24h either vehicle (0.05% DMSO), or drug, was added to culture medium at the indicated concentrations (10 to 0,01microM). After another 72 h, MTT (0.3 mg/ml) was added to cells, followed by incubation for 2-4h at 37 °C in the dark. The medium was then removed, and the precipitated formazan was solubilized by the addition of DMSO (200 µL).
On the technique in general: Tetrazolium dyes change colour on reduction, which living cells bring about.

For the next data set, the system named is Yeast - HsCIpP. In words: Yeast growth inhibition screen, yeast without human ClpP (selectivity control). The following applies: Saccharomyces cerevisiae, read-out: Yeast - HsCIpP GI50. The data set is classed as cell-based. As to the method:
as §1, §2, §3

For a further data set, the system named is DU-145. The data set is described as follows: MTT cell viability assay, DU-145. The data set is classed as cell-based. Conditions: Homo sapiens, DU-145 cells, 72 H, average of at least two independent experiments. As for the experimental part: This a human prostate cancer cell line derived from a metastatic site (brain) of a person.
as §4

The subject of a further data set is U2 OS. In words: MTT cell viability assay, U2 OS. The following applies: Homo sapiens, U2OS, U2 OS cells, 72 H, average of at least two independent experiments. The class given is cell-based. As to the method: U2 OS [American Type Culture Collection (ATCC) reference number HTB-96]. This is a human bone cancer (a moderately differentiated sarcoma) cell derived from an osteosarcoma patient.
as §4

The next data set concerns MDA-MB-231. The data set is described as follows: MTT cell viability assay, MDA-MB-231. The following applies: Homo sapiens, MDA-MB-231 cells, 72 H, average of at least two independent experiments. The class given is cell-based. As for the experimental part:
This a human breast cancer cell line derived from a metastatic site from a person.
as §4

The next data set relates to 4T1. In words: MTT cell viability assay, 4T1. The class given is cell-based. Conditions: Mus musculus; 4T1 cells, 48 H, MTT, average of at least two independent experiments; read-out: IC50 4T1 48 H. As to the method: This a mouse epithelial breast cancer cell line classified as being triple negative and mimics human breast cancer; stage IV.
as §4, with “After another 72 h, MTT (0.3 mg/ml) was added to cells, followed by incubation for 2-4h at 37 °C in the dark.” left out

The next data set has as its system MDA-MB-231 cells. The data set is described as follows: cells. Conditions: for Result / TGI50: MDA-MB-231 72 H, SRB; for Result: cytostatic or not; for TGI50: total growth inhibition concentration. As for the experimental part:
In order to measure the cell population at the time zero (Tz) a plate of cells was stained with SRB 24 hours after seeding. The cell monolayers are fixed with cold 5% (w/v) trichloroacetic acid for 60 minutes at 4°C. The excess of trichloroacetic acid is removed by washing five times with distilled water. Sulforhodamine B (SRB) solution [50 µL at 0.4%(w/v) in 1% acetic acid] is added to each well and plates are incubated for 8 minutes at room temperature. The excess dye is removed by washing five times with 1% (v/v) acetic acid. The bound stain is subsequently solubilized with (100 µL) 10 mM trizma base and the absorbance is read on automated plate reader at a wavelength of 550 nm.
Compounds at various concentrations were added to an identical cell-seeded (non-treated) plate and incubated at 37°C (5% CO2) for an additional […]. Cells were fixed and stained following the same protocol. The measurement of the cell population after 72 hours in the presence of the drug is (Ti). Several wells in the same plate were treated with the control vehicle.
Using the absorbance measurements, time zero (Tz), control growth (C), and test growth in the present of the compound (Ti) the percentage growth inhibition is calculated as: • [(Ti-Tz)/(C-Tz)] x 100 for concentrations for which Ti >/= Tz • [(Ti-Tz)/Tz] x 100 for concentrations for which Ti <Tz
These values were determined using GraphPad software v5 (San Diego, CA).

Setting [1] is: yeast without HsCIpP, 24 h at 25 °C, absorbance at 600 nm.

Each structure is given as a SMILES string. Read-outs that look alike come from different tables or passages of the source.

As to `O=C1C2CN(Cc3cccc(F)c3)CCN2CCN1Cc1cccc(Cl)c1` (stereo not drawn) [Compound 4], the “changes in body weights” value with 4T1 tumours (4T1 tumour-bearing Balb/c mice, during the experimental period) is “no significant changes”. This compound also had a Tumour growth reduced in the data set on 4T1 tumours (established 4T1 tumours, female Balb/c mice, versus vehicle, p < 0.01) of 50%. Moreover, the figures for the concentration for 50% growth inhibition (GI50) in the data set on Yeast + HsCIpP and in the data set on Yeast - HsCIpP (setting [1]) were 210 nM and more than 10000 nM, respectively. Moreover, the IC50 stood at 335 nM with PANC1; 850 nM in the data set on DU-145; 500 nM in the data set with U2 OS; 450 nM with MDA-MB-231; 330 nM with 4T1.

On to `O=C1C2=C(CCN(Cc3ccccc3)C2)N2CCN=C2N1Cc1ccc(F)cc1F` [ONC206, reference compound], for which the GI50 with MDA-MB-231 cells (Homo sapiens, MDA-MB-231, 72 h) is 730 nM; with Yeast + HsCIpP it was 4560 nM; in the data set with Yeast - HsCIpP (24 h), more than 10000 nM. Further, the Result result in the data set on MDA-MB-231 cells is recorded as “Cytostatic”. The TGI50 in the data set on MDA-MB-231 cells is more than 10 µM. In addition, the IC50 in the data set on PANC1 worked out at 300 nM; in the data set on DU-145, 370 nM; in the data set with U2 OS, 800 nM; in the data set with MDA-MB-231, 600 nM; in the data set with 4T1, 600 nM.

Turning to `N#Cc1cccc(CN2CCN3CCN(Cc4ccc(Cl)cc4)C(=O)C3C2)c1` (stereo not drawn) [Compound 3], the GI50 is less than 100 nM with MDA-MB-231 cells (Homo sapiens, MDA-MB-231, 72 h); 65 nM in the data set on Yeast + HsCIpP; more than 10000 nM with Yeast - HsCIpP (setting [1]). The CC50 with MDA-MB-231 cells (Homo sapiens, MDA-MB-231, 72 h, read-out: LC50) was more than 10000 nM. The Result result in the data set on MDA-MB-231 cells is “Cytostatic”. Moreover, in the data set on MDA-MB-231 cells, the TGI50 is more than 10 µM. The IC50 in the data set on PANC1, in the data set on DU-145, in the data set with U2 OS, with MDA-MB-231 and in the data set on 4T1 was less than 100 nM throughout.

The GI50 is the concentration giving 50% growth inhibition. One may read the IC50 as the concentration at which inhibition is half-maximal.
